These are literature values, as cited in patent US12295935B2, “Method for therapeutic treatment of rosacea” (Sol-Gel Technologies Ltd., priority 2019, dated 2025).

The subject of this data set is rosacea. The note with it: BPO as sole active agent.

With `O=C(OOC(=O)c1ccccc1)c1ccccc1` [BPO, Benzoyl peroxide], the response of lesions result was “unresponsive”.
